Test results: patent US20260053812A1, “METHODS OF TREATING HYPERTENSION WITH A COMBINATION OF AN ALDOSTERONE SYNTHASE INHIBITOR AND A DIURETIC” (Mineralys Therapeutics, Inc., priority 2022, published 2026)

Assay: Adverse events (TEAEs, SAEs, AESI; Safety Analysis Set)
From the text: In analyses performed on the Safety Analysis Set, subjects will be analyzed according to their actual treatment received.

Structure (SMILES): CC(=O)N[C@H]1CC[C@H](NC(=O)CN2CCN(c3nncc(-c4ccc(C)cc4)n3)CC2)CC1 [Compound A HBr]
- On-treatment TEAE, Hyperkalaemia, Mild, % (Part 1, 100 mg QD (N = 30)): (26.7) %
- On-treatment TEAE, Infections and infestations, % (Part 1, 100 mg QD (N = 30)): (6.7) %
- On-treatment TEAE, Infections and infestations, Moderate, % (Part 1, 100 mg QD (N = 30)): (6.7) %
- On-treatment TEAE, Investigations, % (Part 1, 100 mg QD (N = 30)): (26.7) %
- On-treatment TEAE, Investigations, Mild, % (Part 1, 100 mg QD (N = 30)): (20.0) %
- On-treatment TEAE, Investigations, Moderate, % (Part 1, 100 mg QD (N = 30)): (6.7) %
- On-treatment TEAE, Metabolism and nutrition disorders, % (Part 1, 100 mg QD (N = 30)): (26.7) %
- On-treatment TEAE, Metabolism and nutrition disorders, Mild, % (Part 1, 100 mg QD (N = 30)): (26.7) %
- On-treatment TEAE, Psychiatric disorders, % (Part 1, 100 mg QD (N = 30)): (6.7) %
- On-treatment TEAE, Psychiatric disorders, Moderate, % (Part 1, 100 mg QD (N = 30)): (6.7) %
- On-treatment TEAE, Urinary tract infection, % (Part 1, 100 mg QD (N = 30)): (3.3) %
- On-treatment TEAE, Vascular disorders, % (Part 1, 100 mg QD (N = 30)): (3.3) %
- On-treatment TEAE, Vascular disorders, Moderate, % (Part 1, 100 mg QD (N = 30)): (3.3) %
- Subjects with any On-treatment TEAEs leading to withdrawal from study drug, % (Part 1, 100 mg QD (N = 30)): (13.3) %
- Subjects with any On-treatment TEAEs, Mild, % (Part 1, 100 mg QD (N = 30)): (30.0) %
- Subjects with any On-treatment TEAEs, Moderate, % (Part 1, 100 mg QD (N = 30)): (23.3) %
- TEAE leading to permanent discontinuation from study drug, Activated partial thromboplastin time prolonged, % (Part 1, 100 mg QD (N = 30)): (3.3) %
- TEAE leading to permanent discontinuation from study drug, Hyperkalaemia, % (Part 1, 100 mg QD (N = 30)): (6.7) %
- TEAE leading to permanent discontinuation from study drug, Hypotension, % (Part 1, 100 mg QD (N = 30)): (3.3) %
- TEAE leading to permanent discontinuation from study drug, Investigations, % (Part 1, 100 mg QD (N = 30)): (3.3) %
- TEAE leading to permanent discontinuation from study drug, Metabolism and nutrition disorders, % (Part 1, 100 mg QD (N = 30)): (6.7) %
- TEAE leading to permanent discontinuation from study drug, Vascular disorders, % (Part 1, 100 mg QD (N = 30)): (3.3) %
- On-treatment TEAE, Blood and lymphatic system disorders, % (Part 1, Active (N = 133)): (1.5) %
- On-treatment TEAE, Blood and lymphatic system disorders, Mild, % (Part 1, Active (N = 133)): (1.5) %
- On-treatment TEAE, Blood creatinine increased, % (Part 1, Active (N = 133)): (2.3) %
- On-treatment TEAE, Blood creatinine increased, Mild, % (Part 1, Active (N = 133)): (2.3) %
- On-treatment TEAE, Cardiac disorders, % (Part 1, Active (N = 133)): (3.0) %
- On-treatment TEAE, Cortisol decreased, % (Part 1, Active (N = 133)): (2.3) %
- On-treatment TEAE, Cortisol decreased, Mild, % (Part 1, Active (N = 133)): (2.3) %
- On-treatment TEAE, Dizziness, % (Part 1, Active (N = 133)): (2.3) %
- On-treatment TEAE, Gastrointestinal disorders, % (Part 1, Active (N = 133)): (4.5) %
- On-treatment TEAE, Gastrointestinal disorders, Mild, % (Part 1, Active (N = 133)): (3.8) %
- On-treatment TEAE, General disorders and administration site conditions, % (Part 1, Active (N = 133)): (3.8) %
- On-treatment TEAE, General disorders and administration site conditions, Mild, % (Part 1, Active (N = 133)): (1.5) %
- On-treatment TEAE, Glomerular filtration rate decreased, % (Part 1, Active (N = 133)): (6.8) %
- On-treatment TEAE, Glomerular filtration rate decreased, Mild, % (Part 1, Active (N = 133)): (6.0) %
- On-treatment TEAE, Headache, % (Part 1, Active (N = 133)): (2.3) %
- On-treatment TEAE, Headache, Mild, % (Part 1, Active (N = 133)): (2.3) %
- On-treatment TEAE, Hyperkalaemia, % (Part 1, Active (N = 133)): (23.3) %
- On-treatment TEAE, Hyperkalaemia, Mild, % (Part 1, Active (N = 133)): (19.5) %
- On-treatment TEAE, Hyperkalaemia, Moderate, % (Part 1, Active (N = 133)): (3.0) %
- On-treatment TEAE, Hyperkalaemia, Severe, % (Part 1, Active (N = 133)): (0.8) %
- On-treatment TEAE, Hypertension, % (Part 1, Active (N = 133)): (3.8) %
- On-treatment TEAE, Hypertension, Moderate, % (Part 1, Active (N = 133)): (2.3) %
- On-treatment TEAE, Infections and infestations, % (Part 1, Active (N = 133)): (8.3) %
- On-treatment TEAE, Infections and infestations, Mild, % (Part 1, Active (N = 133)): (3.8) %
- On-treatment TEAE, Infections and infestations, Moderate, % (Part 1, Active (N = 133)): (4.5) %
- On-treatment TEAE, Investigations, % (Part 1, Active (N = 133)): (15.8) %
- On-treatment TEAE, Investigations, Mild, % (Part 1, Active (N = 133)): (12.8) %
- On-treatment TEAE, Investigations, Moderate, % (Part 1, Active (N = 133)): (3.0) %
- On-treatment TEAE, Metabolism and nutrition disorders, % (Part 1, Active (N = 133)): (25.6) %
- On-treatment TEAE, Metabolism and nutrition disorders, Mild, % (Part 1, Active (N = 133)): (21.8) %
- On-treatment TEAE, Metabolism and nutrition disorders, Moderate, % (Part 1, Active (N = 133)): (3.0) %
- On-treatment TEAE, Nervous system disorders, % (Part 1, Active (N = 133)): (6.0) %
- On-treatment TEAE, Nervous system disorders, Mild, % (Part 1, Active (N = 133)): (4.5) %
- On-treatment TEAE, Orthostatic hypotension, % (Part 1, Active (N = 133)): (2.3) %
- On-treatment TEAE, Orthostatic hypotension, Mild, % (Part 1, Active (N = 133)): (2.3) %
- On-treatment TEAE, Psychiatric disorders, % (Part 1, Active (N = 133)): (2.3) %
- On-treatment TEAE, Psychiatric disorders, Moderate, % (Part 1, Active (N = 133)): (2.3) %
- On-treatment TEAE, Urinary tract infection, % (Part 1, Active (N = 133)): (5.3) %
- On-treatment TEAE, Urinary tract infection, Mild, % (Part 1, Active (N = 133)): (3.0) %
- On-treatment TEAE, Vascular disorders, % (Part 1, Active (N = 133)): (6.8) %
- On-treatment TEAE, Vascular disorders, Mild, % (Part 1, Active (N = 133)): (3.8) %
- On-treatment TEAE, Vascular disorders, Moderate, % (Part 1, Active (N = 133)): (3.0) %
- Subjects with any On-treatment TEAEs leading to withdrawal from study drug, % (Part 1, Active (N = 133)): (7.5) %
- Subjects with any On-treatment TEAEs, Mild, % (Part 1, Active (N = 133)): (35.3) %
- Subjects with any On-treatment TEAEs, Moderate, % (Part 1, Active (N = 133)): (18.8) %
- Subjects with any On-treatment TEAEs, Severe, % (Part 1, Active (N = 133)): (0.8) %
- TEAE leading to permanent discontinuation from study drug, Activated partial thromboplastin time prolonged, % (Part 1, Active (N = 133)): (0.8) %
- TEAE leading to permanent discontinuation from study drug, Cardiac disorders, % (Part 1, Active (N = 133)): (0.8) %
- TEAE leading to permanent discontinuation from study drug, Coronary artery disease, % (Part 1, Active (N = 133)): (0.8) %
- TEAE leading to permanent discontinuation from study drug, Dizziness, % (Part 1, Active (N = 133)): (0.8) %
- TEAE leading to permanent discontinuation from study drug, Hyperkalaemia, % (Part 1, Active (N = 133)): (3.8) %
- TEAE leading to permanent discontinuation from study drug, Hypertension, % (Part 1, Active (N = 133)): (0.8) %
- TEAE leading to permanent discontinuation from study drug, Hypotension, % (Part 1, Active (N = 133)): (0.8) %
- TEAE leading to permanent discontinuation from study drug, Investigations, % (Part 1, Active (N = 133)): (0.8) %
- TEAE leading to permanent discontinuation from study drug, Metabolism and nutrition disorders, % (Part 1, Active (N = 133)): (3.8) %
- TEAE leading to permanent discontinuation from study drug, Nervous system disorders, % (Part 1, Active (N = 133)): (0.8) %
- TEAE leading to permanent discontinuation from study drug, Orthostatic hypotension, % (Part 1, Active (N = 133)): (0.8) %
